Measured values as given in PMC11940194, “Synthesis, Antiproliferative Activity, and ADME Profiling of Novel Racemic and Optically Pure Aryl-Substituted Purines and Purine Bioisosteres” (Biomolecules, 2025).

What was measured:
Format in all cases: cell-based, human
[1] = tested on: breast adenocarcinoma (MCF7) cells; experiment: Antiproliferative MTT assay, MCF-7; conditions: for IC50: Homo sapiens, MCF7, 72 h incubation, MTT, mean ± SD; for SI (MCF-7): SI = [IC50 HFF]/[IC50 MCF-7]
Description: (§1) The human ATCC tumor cell lines breast adenocarcinoma (MCF7), colorectal carcinoma (HT-29), pancreatic ductal adenocarcinoma (CFPAC-1), hepatocellular carcinoma (HepG2), and normal skin fibroblasts (HFF) derived from ATCC (American Type Culture Collection) were cultured in Dulbecco’s Modified Eagle Medium (DMEM) or Minimum Essential Medium (MEM) supplemented with 10% fetal bovine serum (FBS), 2 mM L-glutamine, 100 U/mL penicillin, and 100 µg/mL streptomycin (Lonza, Basel, Switzerland) in a humidified atmosphere with 5% CO2 at 37 °C. For the experiment, carcinoma cell lines and normal human cell lines were seeded in 96-well microtiter plates at a density of 3000 cells per well and 5000 cells per well, respectively, depending on the doubling time of the specific cell line. The test substances were then added at fivefold, tenfold dilutions (0.01 to 100 µM), freshly prepared in the growth medium on the day of testing, and incubated for a further 72 h. After 72 h of incubation, the growth rate of the cells was determined using the MTT assay according to the manufacturer’s guidelines. […] The IC50 values were calculated from the dose–response curves using linear regression analysis. The experiment was performed in tetraplicates in two individual experiments.
(§2) Newly synthesized compounds were evaluated for their cytotoxic activity in vitro against four human cancer cell lines, including human breast adenocarcinoma (MCF-7), ductal pancreatic adenocarcinoma (CFPAC-1), colorectal carcinoma (HT-29), and hepatocellular carcinoma (HepG2), as well as on non-cancerous skin fibroblasts (HFF-1), to check for non-specific toxicity. Furthermore, 5-Fluorouracil (5-FU) was used as a reference drug. The results are expressed as 50% inhibitory concentration (IC50) values and are listed in Table 2, Table 3, Table 4 and Table 5.

[2] = tested on: pancreatic ductal adenocarcinoma (CFPAC-1) cells; experiment: Antiproliferative MTT assay, CFPAC-1; conditions: for IC50: Homo sapiens, CFPAC-1, 72 h, 72 h incubation, MTT, mean ± SD; for SI (CFPAC-1): SI = [IC50 HFF]/[IC50 CFPAC-1]
Description: as §1, §2

[3] = tested on: colorectal carcinoma (HT-29) cells; experiment: Antiproliferative MTT assay, HT-29; conditions: for IC50: Homo sapiens, HT-29, 72 h, 72 h incubation, MTT, mean ± SD; for SI (HT-29): SI = [IC50 HFF]/[IC50 HT-29]
Description: as §1, §2

[4] = tested on: hepatocellular carcinoma (HepG2) cells; experiment: Antiproliferative MTT assay, HepG2; conditions: for IC50: Homo sapiens, HepG2, 72 h, 72 h incubation, MTT, mean ± SD; for SI (HepG2): SI = [IC50 HFF]/[IC50 HepG2]
Description: as §1, §2

[5] = tested on: normal skin fibroblasts (HFF-1); experiment: Cytotoxicity MTT assay, normal skin fibroblasts; conditions: Homo sapiens, HFF-1, 72 h, 72 h incubation, mean ± SD
Description: as §1, §2

Row | Compound | IC50 [1] [µM] | IC50 [2] [µM] | SI (CFPAC-1) [2] | IC50 [3] [µM] | IC50 [4] [µM] | IC50 [5] [µM] | SI (HT-29) [3] | SI (HepG2) [4] | SI (MCF-7) [1]
1 | OCC(c1ccc(C(F)(F)F)cc1)n1cc(Cn2cnc3ccccc32)nn1 (centres unmarked) [Compound 35a, 1-((1-(2-Hydroxy-1-(4-(trifluoromethyl)phenyl)ethyl)-1H-1,2,3-triazol-4-yl)methyl)-1H-benzimidazole] | 30 ± 0.9 | 27 ± 0.7 | >3.7 | 61 ± 0.7 | 59 ± 4.6 | > 100 | – | – | –
2 | OC(Cn1cc(Cn2cnc3ccccc32)nn1)c1ccc(C(F)(F)F)cc1 (centres unmarked) [Compound 35b, 1-((1-(2-Hydroxy-2-(4-(trifluoromethyl)phenyl)ethyl)-1H-1,2,3-triazol-4-yl)methyl)-1H-benzimidazole] | 31 ± 13.7 | 36 ± 1.3 | 0.6 | 67 ± 2.9 | 67 ± 3.5 | 22 ± 18.1 | – | – | –
3 | OCC(c1ccccc1)n1cc(Cn2cnc3c(Cl)ncnc32)nn1 (centres unmarked) [Compound 36a, 6-Chloro-9-((1-(2-hydroxy-1-phenylethyl)-1H-1,2,3-triazol-4-yl)methyl)-9H-purine] | 53 ± 5.5 | 60 ± 0.9 | – | 54 ± 7.4 | 55 ± 2.4 | > 100 | >1.9 | >1.8 | –
4 | OC(Cn1cc(Cn2cnc3c(Cl)ncnc32)nn1)c1ccccc1 (centres unmarked) [Compound 36b, 6-Chloro-9-((1-(2-hydroxy-2-phenylethyl)-1H-1,2,3-triazol-4-yl)methyl)-9H-purine] | 69 ± 10.6 | 65 ± 18.9 | – | 61 ± 2.4 | 41 ± 10.6 | 80 ± 14 | 1.3 | 1.9 | –
5 | OCC(c1ccc(F)cc1)n1cc(Cn2cnc3c(Cl)ncnc32)nn1 (centres unmarked) [Compound 37a, 6-Chloro-9-((1-(2-hydroxy-1-(4-fluorophenyl)ethyl)-1H-1,2,3-triazol-4-yl)methyl)-9H-purine] | 38 ± 15.7 | 50 ± 12.4 | – | 41 ± 2.3 | 37 ± 12.9 | 64 ± 6.3 | 1.6 | 1.7 | –
6 | OC(Cn1cc(Cn2cnc3c(Cl)ncnc32)nn1)c1ccc(F)cc1 (centres unmarked) [Compound 37b, 6-Chloro-9-((1-(2-hydroxy-2-(4-fluorophenyl)ethyl)-1H-1,2,3-triazol-4-yl)methyl)-9H-purine] | 49 ± 9.9 | 56 ± 5.5 | – | 46 ± 9.9 | 54 ± 6 | 59 ± 9.2 | 1.3 | 1.1 | –
7 | OCC(c1ccc(Cl)cc1)n1cc(Cn2cnc3c(Cl)ncnc32)nn1 (centres unmarked) [Compound 38a, 6-Chloro-9-((1-(2-hydroxy-1-(4-chlorophenyl)ethyl)-1H-1,2,3-triazol-4-yl)methyl)-9H-purine] | 24 ± 8.8 | 48 ± 4.9 | – | 33 ± 6.06 | 34 ± 4.2 | 41 ± 16.3 | 1.2 | 1.2 | –
8 | OC(Cn1cc(Cn2cnc3c(Cl)ncnc32)nn1)c1ccc(Cl)cc1 (centres unmarked) [Compound 38b, 6-Chloro-9-((1-(2-hydroxy-2-(4-chlorophenyl)ethyl)-1H-1,2,3-triazol-4-yl)methyl)-9H-purine] | 51 ± 8.9 | 36 ± 8.2 | – | 56 ± 2.8 | 49 ± 13.3 | 31 ± 5.3 | 0.6 | 0.6 | –
9 | OCC(c1ccccc1)n1cc(Cn2ccc3c(Cl)ncnc32)nn1 (centres unmarked) [Compound 41a, 4-Chloro-7-((1-(2-hydroxy-1-phenylethyl)-1H-1,2,3-triazol-4-yl)methyl)-7H-pyrrolo[2,3-d]pyrimidine] | 39 ± 7.1 | 33 ± 4.5 | 1.9 | 33 ± 3.2 | 38 ± 1.8 | 62 ± 23.3 | – | – | 1.6
10 | OC(Cn1cc(Cn2ccc3c(Cl)ncnc32)nn1)c1ccccc1 (centres unmarked) [Compound 41b, 4-Chloro-7-((1-(2-hydroxy-2-phenylethyl)-1H-1,2,3-triazol-4-yl)methyl)-7H-pyrrolo[2,3-d]pyrimidine] | 44 ± 17.4 | 49 ± 11.3 | 0.9 | 50 ± 1.3 | 50 ± 10.2 | 44 ± 14.1 | – | – | 1.0
